Each block holds one molecule with its values, some of them ahead of it.
Assays:
[1] = GSH reaction assay; assay type: in vitro ADME; settings: GSH 5 mM, inhibitor 1 mM, 37°C, 10–60 min
Description: GSH (5 mM) and inhibitor (1 mM) or DMSO control were mixed in equal volumes and reacted at 37°C for 10 min, 20 min, 30 min, 40 min, 50 min, and 60 min. The remaining GSH was detected with DTNB (Beyotime, China), and the absorption light was measured at 412 nm on a plate reader (Perkin-Elmer). Data were determined using the time (min) versus % of control in Origin 2018 software.

[2] = system: FGFR4(C552A) mutant; settings: cited from earlier work
[3] = molecular target: T1, FGFR4 (Homo sapiens, UniProt P22455); test: MALDI-TOF MS covalent binding
T1 construct: purchased ICE Bioscience
Description: (§1) Wild-type FGFRs and mutant FGFRs were prepared as previously described[25]–[27]. […] The N-terminal of the recombinant proteins were contained a 6xHis tag followed by a PreScission cleavage site for FGFR1, FGFR2, FGFR3, and FGFR4. Site-directed mutagenesis of FGFR4 was generated according to the ClonExpress II One Step Cloning Kit (Vazyme) using the pET28a-FGFR4 plasmid as the template. […] For crystallization experiments, the wild-type FGFR4 plasmid was co-expressed with untagged YOPH to obtain non-phosphorylated proteins. The proteins were first purified by Ni-NTA affinity chromatography. The 6 × His tag was removed by PreScission protease. Then, anion exchange chromatography (Mono Q) and size exclusion chromatography (if necessary) were exploited for further purification. The target proteins were concentrated to ~5–15 mg/mL and flash frozen for storage at −80°C for subsequent studies.

[4] = molecular target: T2, FGFR4(C477A) (Homo sapiens, UniProt P22455, C477A); test: MALDI-TOF MS covalent binding
T2 construct: FGFR4 (residues 445–753); 6xHis + PreScission site (N, cleaved yes); made in house; host or cells: Escherichia coli Rosseta
Description: as §1

[5] = molecular target: T3, FGFR4(C552A) (Homo sapiens, UniProt P22455, C552A); test: MALDI-TOF MS covalent binding
T3 construct: FGFR4 (residues 445–753); 6xHis + PreScission site (N, cleaved yes); made in house; host or cells: Escherichia coli Rosseta
Description: as §1

[6] = molecular target: FGFR1 (Homo sapiens, UniProt P11362); test: MALDI-TOF MS covalent binding
Chain of FGFR1 (P11362 22-822): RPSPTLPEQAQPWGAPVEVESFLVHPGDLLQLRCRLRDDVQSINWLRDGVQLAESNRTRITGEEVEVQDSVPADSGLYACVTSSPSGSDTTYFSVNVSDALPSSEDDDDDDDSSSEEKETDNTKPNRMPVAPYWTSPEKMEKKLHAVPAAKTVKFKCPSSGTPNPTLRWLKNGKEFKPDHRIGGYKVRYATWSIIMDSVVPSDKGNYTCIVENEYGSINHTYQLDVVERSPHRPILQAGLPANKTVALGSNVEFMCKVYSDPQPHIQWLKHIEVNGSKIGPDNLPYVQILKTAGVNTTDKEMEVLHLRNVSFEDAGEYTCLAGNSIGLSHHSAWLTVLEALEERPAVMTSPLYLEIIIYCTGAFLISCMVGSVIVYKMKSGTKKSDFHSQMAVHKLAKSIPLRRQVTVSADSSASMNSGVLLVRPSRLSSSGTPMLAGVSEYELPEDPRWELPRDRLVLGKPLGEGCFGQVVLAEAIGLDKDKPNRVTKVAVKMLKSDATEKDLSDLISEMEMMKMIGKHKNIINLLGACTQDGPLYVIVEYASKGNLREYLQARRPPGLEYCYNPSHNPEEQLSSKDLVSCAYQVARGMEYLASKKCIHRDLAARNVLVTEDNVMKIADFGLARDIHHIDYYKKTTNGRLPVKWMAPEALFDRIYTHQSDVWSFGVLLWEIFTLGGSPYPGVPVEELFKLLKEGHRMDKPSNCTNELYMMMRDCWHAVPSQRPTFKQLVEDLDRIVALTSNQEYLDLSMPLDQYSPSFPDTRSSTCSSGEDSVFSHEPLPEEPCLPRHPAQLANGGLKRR
Description: The N-terminal of the recombinant proteins were contained a 6xHis tag followed by a PreScission cleavage site for FGFR1, FGFR2, FGFR3, and FGFR4. […] The proteins were first purified by Ni-NTA affinity chromatography. The 6 × His tag was removed by PreScission protease. Then, anion exchange chromatography (Mono Q) and size exclusion chromatography (if necessary) were exploited for further purification. The target proteins were concentrated to ~5–15 mg/mL and flash frozen for storage at −80°C for subsequent studies.

T2 sequence (P22455 445-753 C477A): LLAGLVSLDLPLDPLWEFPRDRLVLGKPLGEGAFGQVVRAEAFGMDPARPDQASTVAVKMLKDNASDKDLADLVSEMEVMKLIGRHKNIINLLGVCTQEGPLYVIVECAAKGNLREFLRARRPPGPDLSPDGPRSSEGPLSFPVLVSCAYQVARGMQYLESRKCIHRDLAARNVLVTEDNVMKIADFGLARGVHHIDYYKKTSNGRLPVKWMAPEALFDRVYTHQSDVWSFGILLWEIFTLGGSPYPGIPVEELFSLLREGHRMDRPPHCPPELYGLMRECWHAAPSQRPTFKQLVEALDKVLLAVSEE
T1 sequence (P22455 22-802): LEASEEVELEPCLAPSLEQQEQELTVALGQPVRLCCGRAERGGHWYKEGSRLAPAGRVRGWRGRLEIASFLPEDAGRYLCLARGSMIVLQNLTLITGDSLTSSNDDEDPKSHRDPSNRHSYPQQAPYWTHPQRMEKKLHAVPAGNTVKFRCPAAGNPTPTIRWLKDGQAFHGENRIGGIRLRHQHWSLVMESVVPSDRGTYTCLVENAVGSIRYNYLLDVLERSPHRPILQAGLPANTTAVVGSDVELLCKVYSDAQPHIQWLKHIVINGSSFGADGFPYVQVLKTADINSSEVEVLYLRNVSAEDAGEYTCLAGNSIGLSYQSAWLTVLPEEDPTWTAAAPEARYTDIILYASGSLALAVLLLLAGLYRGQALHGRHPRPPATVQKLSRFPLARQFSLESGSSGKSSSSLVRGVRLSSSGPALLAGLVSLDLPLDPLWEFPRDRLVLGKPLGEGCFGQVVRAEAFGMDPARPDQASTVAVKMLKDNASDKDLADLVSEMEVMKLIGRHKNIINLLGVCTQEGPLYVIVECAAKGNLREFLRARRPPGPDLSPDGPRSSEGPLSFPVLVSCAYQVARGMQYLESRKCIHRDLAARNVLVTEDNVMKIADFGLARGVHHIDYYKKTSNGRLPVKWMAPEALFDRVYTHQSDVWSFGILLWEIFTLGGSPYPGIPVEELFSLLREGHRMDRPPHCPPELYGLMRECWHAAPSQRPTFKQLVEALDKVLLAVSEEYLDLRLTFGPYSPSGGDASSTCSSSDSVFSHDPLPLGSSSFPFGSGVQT
T3 sequence (P22455 445-753 C552A): as the sequence (P22455 445-753 C477A) above, with A33C, C108A counted along it

GSH reactivity (remaining GSH, DTNB) [1]: time-dependent decrease in GSH
SMILES: C=CC(=O)N1CCN(CCCn2c(=O)c(-c3c(Cl)c(OC)cc(OC)c3Cl)cc3cnc(NC)nc32)CC1 [PRN1371, 8-(3-(4-Acryloylpiperazin-1-yl)propyl)-6-(2,6-dichloro-3,5-dimethoxyphenyl)-2-(methylamino)pyrido[2,3-d]pyrimidin-7(8H)-one, reference compound]

SMILES: C=CC(=O)N[C@H]1CCOC[C@H]1Nc1ncc2cc(-c3c(Cl)c(OC)cc(OC)c3Cl)ccc2n1 [BLU554]
IC50 [2]: > 10 µM

covalent bond formation (mass shift) [4]: forms a covalent bond with FGFR4(C477A)
covalent bond formation (mass shift) [5]: not with FGFR4(C552A)
covalent bond formation (mass shift) [6]: forms a covalent bond with FGFR1
SMILES: C=CC(=O)Nc1cccc(C)c1Nc1ncc2c(n1)N(CCCN1CCN(C(=O)C=C)CC1)C(=O)N(c1cc(OC)cc(OC)c1)C2 [CXF-008]
covalent bond formation (mass shift) [3]: only forms one covalent bond with Cys552 of FGFR4

From PMC9814781, “Structure-based design of a dual-warhead covalent inhibitor of FGFR4” (Communications Chemistry, 2022)
